Reference: US7186519B2 (priority 2002, dated 2007)
Entries after “also recorded” stand apart in the source; their conditions may differ.

Experiments:
CT43 cells = assay type: cell-based, Chinese hamster
[1] = tested on: CT43 cells expressing NPC1-GFP; assay: Fluorescence microscopy of BCθ binding in NPC1-GFP transfected cells; conditions: CT43 cells expressing NPC1-GFP exposed to U18666A
Description: To examine the effect of NPC1 expression on intracellular BCθ binding to cholesterol in CT43 cells, a construct comprising a GFP-tagged NPC1 protein (NPC1-GFP) was prepared and introduced into CT43 cells by transient transfection. […] After BCθ binding, cells containing NPC1-GFP were viewed in the red channel to detect the BCθ fluorescence signal or in the green channel to detect the NPC1-GFP fluorescence signal. The two fluorescence signals were then merged to examine their degree of overlap.
2-hydroxypropyl-β-cyclodextrin (SIGMA™-Aldrich, St. Louis, Mo.) was added to culture medium using well-known methods (Rothblat, et al. (1999) supra). U18666A was provided to the cells using standard conditions (Lange, et al. (2000) supra; Liscum and Faust (1989) supra).
Transient transfection of NPC1-GFP was performed in CT43 cells using FUGENE™ 6 according to manufacturer's instructions (Roche, Indianapolis, Ind.). Transfected cells were imaged within 2–3 days of transfection.
Cells were grown on glass coverslips in six-well plates and processed for fluorescence studies. […]

25RA cells = assay type: cell-based, Chinese hamster

2-hydroxypropyl-b-cyclodextrin [hpCD]
Effect on BCθ fluorescence signal (intracellular cholesterol) (CT43 cells): both cell lines retained most of the BCθ fluorescence signals; also recorded: retained much of the signal

CCN(CC)CCO[C@H]1CC[C@@]2(C)C(=CC[C@@H]3[C@@H]2CC[C@]2(C)C(=O)CC[C@@H]32)C1 [U18666A]
Effect on binding of BCθ to intracellular cholesterol [1]: binding of BCθ to intracellular cholesterol persisted

CCCCC[C@@H](O)[C@H]1C(=O)O[C@H](C)[C@@H](O)/C=C/C=C/C=C/C=C/C=C(\C)[C@@H](O)C[C@H](O)C[C@H](O)C[C@H](O)C[C@H](O)C[C@H](O)C[C@@H]1O [filipin]
Binding to intracellular cholesterol (25RA cells): not in 25RA cells | Binding to intracellular cholesterol (CT43 cells): able to bind intracellular cholesterol in CT43 cells
